In patent US20170190705A1, “Compositions and Methods for Inhibiting BMP” (THE BRIGHAM AND WOMAN'S HOSPITAL, INC., priority 2014, published 2017):
Read-outs that look alike come from different tables or passages of the source.

How the values were obtained:
Format in all cases: biochemical
[1] = biological target: T1, IKK-β (Homo sapiens, UniProt O14920); assay: Kinome profiling IKK-β; conditions: read-out: Inhibitory activity IKK-β; for inhibition at 0.1 µM: 100 nM
T1 sequence (O14920 1-756): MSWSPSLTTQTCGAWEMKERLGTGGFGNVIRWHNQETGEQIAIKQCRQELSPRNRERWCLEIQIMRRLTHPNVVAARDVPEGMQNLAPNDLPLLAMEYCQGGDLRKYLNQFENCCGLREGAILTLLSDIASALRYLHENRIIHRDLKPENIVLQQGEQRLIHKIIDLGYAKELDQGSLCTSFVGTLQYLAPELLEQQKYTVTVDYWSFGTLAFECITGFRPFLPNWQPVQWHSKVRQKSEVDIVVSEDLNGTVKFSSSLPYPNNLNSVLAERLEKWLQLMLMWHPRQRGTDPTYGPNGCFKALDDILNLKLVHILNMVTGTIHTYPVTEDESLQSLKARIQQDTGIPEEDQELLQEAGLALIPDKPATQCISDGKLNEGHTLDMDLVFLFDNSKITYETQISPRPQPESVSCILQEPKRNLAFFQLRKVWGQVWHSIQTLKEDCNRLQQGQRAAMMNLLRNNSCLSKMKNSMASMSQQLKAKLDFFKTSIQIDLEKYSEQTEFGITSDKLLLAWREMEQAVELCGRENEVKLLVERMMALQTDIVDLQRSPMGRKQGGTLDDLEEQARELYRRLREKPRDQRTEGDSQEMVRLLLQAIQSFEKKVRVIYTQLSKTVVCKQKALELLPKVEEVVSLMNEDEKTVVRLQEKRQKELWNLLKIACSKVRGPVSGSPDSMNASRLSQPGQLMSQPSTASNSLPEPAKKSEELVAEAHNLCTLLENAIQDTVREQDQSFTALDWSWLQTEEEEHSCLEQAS
Method: (§1) . The kinome-wide selectivity was determined following the methods previously reported by Mohedas et al., ACS Chem Biol 2013, 8, 1291-1302 and Sanvitale et al., PLoS One 2013, 8, e62721.

[2] = biological target: FES (Homo sapiens, UniProt P07332); assay: Kinome profiling FES; conditions: read-out: Inhibitory activity FES; for inhibition at 0.1 µM: 100 nM
Method: as §1

[3] = biological target: CDK5/p35 (Homo sapiens, UniProt Q00535); assay: Kinome profiling CDK5/p35; conditions: read-out: Inhibitory activity CDK5/p35; for inhibition at 0.1 µM: 100 nM
Method: as §1

[4] = biological target: MNK2 (Homo sapiens, UniProt Q9HBH9); assay: Kinome profiling MNK2; conditions: read-out: Inhibitory activity MNK2; for inhibition at 0.1 µM: 100 nM
Method: as §1

[5] = biological target: MARK1 (Homo sapiens, UniProt Q9P0L2); assay: Kinome profiling MARK1; conditions: read-out: Inhibitory activity MARK1; for inhibition at 0.1 µM: 100 nM
Method: as §1

[6] = biological target: MAP4K4 (Homo sapiens, UniProt O95819); assay: Kinome profiling MAP4K4; conditions: for inhibition at 0.1 µM: 100 nM
Method: as §1

[7] = biological target: T2, ZAP70 (Homo sapiens, UniProt P43403); assay: Kinome profiling ZAP70; conditions: read-out: Inhibitory activity ZAP70; for inhibition at 0.1 µM: 100 nM
T2 sequence (P43403 1-619): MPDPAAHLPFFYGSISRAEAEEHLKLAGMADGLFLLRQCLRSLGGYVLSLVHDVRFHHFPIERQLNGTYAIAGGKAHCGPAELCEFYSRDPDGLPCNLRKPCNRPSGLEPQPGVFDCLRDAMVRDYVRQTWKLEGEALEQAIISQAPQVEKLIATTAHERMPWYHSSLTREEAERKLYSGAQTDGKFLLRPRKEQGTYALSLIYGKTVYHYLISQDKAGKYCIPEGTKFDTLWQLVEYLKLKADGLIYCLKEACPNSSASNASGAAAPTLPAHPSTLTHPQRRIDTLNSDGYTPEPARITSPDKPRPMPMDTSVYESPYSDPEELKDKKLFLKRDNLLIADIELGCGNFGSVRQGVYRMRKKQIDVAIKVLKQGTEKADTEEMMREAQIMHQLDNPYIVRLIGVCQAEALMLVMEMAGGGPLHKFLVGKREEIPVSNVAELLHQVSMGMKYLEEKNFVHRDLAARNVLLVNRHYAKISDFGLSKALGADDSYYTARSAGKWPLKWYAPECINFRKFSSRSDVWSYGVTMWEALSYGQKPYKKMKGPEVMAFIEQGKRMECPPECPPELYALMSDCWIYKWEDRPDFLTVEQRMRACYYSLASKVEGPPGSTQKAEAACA
Method: as §1

[8] = biological target: MRCK-α (Homo sapiens, UniProt Q5VT25); assay: Kinome profiling MRCK-α; conditions: read-out: Inhibitory activity MRCK-α; for inhibition at 0.1 µM: 100 nM
Method: as §1

[9] = biological target: FGFR1 (Homo sapiens, UniProt P11362); assay: Kinome profiling FGFR1; conditions: read-out: Inhibitory activity FGFR1; for inhibition at 0.1 µM: 100 nM
Method: as §1

[10] = Table 4, read-out: Inhibitory Activity MAP4K4
[11] = read-out: Inhibitory activity MAP4K4

Chain of FES (P07332 whole entry): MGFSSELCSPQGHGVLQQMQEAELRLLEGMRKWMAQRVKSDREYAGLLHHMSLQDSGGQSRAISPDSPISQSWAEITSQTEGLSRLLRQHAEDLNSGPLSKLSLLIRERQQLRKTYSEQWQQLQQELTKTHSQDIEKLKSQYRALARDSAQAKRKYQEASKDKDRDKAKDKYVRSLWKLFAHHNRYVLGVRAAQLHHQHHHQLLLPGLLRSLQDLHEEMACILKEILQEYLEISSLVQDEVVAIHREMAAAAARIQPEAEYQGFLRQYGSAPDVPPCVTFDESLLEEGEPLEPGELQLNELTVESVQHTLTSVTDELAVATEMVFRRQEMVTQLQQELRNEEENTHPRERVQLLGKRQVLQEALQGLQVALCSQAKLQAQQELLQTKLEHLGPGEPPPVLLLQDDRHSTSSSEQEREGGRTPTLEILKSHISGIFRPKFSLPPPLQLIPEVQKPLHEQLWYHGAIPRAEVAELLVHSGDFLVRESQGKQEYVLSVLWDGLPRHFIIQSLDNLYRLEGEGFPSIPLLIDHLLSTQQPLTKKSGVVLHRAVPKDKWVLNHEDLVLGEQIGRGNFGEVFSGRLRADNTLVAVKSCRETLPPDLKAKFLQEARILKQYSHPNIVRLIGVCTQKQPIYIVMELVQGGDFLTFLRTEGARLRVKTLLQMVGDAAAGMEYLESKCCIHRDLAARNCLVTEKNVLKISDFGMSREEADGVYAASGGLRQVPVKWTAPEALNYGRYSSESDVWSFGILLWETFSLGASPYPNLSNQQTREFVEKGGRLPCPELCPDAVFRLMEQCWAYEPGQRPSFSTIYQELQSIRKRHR
Chain of FGFR1 (P11362 22-822): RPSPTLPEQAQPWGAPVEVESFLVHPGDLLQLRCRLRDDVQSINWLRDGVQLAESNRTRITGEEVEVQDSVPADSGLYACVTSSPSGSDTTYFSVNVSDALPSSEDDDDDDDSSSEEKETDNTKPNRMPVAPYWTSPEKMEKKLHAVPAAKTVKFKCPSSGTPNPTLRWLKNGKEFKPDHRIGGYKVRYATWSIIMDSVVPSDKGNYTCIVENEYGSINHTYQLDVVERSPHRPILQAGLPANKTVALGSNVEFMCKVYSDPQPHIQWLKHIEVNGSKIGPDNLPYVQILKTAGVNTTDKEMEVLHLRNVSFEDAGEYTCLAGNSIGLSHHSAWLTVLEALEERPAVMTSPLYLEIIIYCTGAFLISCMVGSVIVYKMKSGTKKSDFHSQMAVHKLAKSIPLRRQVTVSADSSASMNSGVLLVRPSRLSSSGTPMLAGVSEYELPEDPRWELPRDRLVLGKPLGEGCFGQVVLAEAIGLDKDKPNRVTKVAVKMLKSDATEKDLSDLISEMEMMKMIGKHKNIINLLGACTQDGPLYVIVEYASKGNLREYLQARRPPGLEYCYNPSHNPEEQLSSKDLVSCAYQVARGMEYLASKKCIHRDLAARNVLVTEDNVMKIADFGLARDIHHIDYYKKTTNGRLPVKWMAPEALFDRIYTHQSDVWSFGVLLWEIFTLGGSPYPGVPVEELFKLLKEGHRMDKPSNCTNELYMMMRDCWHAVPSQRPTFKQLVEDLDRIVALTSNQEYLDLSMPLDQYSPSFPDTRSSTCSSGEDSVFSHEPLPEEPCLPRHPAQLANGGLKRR
Chain of MRCK-α (Q5VT25 whole entry): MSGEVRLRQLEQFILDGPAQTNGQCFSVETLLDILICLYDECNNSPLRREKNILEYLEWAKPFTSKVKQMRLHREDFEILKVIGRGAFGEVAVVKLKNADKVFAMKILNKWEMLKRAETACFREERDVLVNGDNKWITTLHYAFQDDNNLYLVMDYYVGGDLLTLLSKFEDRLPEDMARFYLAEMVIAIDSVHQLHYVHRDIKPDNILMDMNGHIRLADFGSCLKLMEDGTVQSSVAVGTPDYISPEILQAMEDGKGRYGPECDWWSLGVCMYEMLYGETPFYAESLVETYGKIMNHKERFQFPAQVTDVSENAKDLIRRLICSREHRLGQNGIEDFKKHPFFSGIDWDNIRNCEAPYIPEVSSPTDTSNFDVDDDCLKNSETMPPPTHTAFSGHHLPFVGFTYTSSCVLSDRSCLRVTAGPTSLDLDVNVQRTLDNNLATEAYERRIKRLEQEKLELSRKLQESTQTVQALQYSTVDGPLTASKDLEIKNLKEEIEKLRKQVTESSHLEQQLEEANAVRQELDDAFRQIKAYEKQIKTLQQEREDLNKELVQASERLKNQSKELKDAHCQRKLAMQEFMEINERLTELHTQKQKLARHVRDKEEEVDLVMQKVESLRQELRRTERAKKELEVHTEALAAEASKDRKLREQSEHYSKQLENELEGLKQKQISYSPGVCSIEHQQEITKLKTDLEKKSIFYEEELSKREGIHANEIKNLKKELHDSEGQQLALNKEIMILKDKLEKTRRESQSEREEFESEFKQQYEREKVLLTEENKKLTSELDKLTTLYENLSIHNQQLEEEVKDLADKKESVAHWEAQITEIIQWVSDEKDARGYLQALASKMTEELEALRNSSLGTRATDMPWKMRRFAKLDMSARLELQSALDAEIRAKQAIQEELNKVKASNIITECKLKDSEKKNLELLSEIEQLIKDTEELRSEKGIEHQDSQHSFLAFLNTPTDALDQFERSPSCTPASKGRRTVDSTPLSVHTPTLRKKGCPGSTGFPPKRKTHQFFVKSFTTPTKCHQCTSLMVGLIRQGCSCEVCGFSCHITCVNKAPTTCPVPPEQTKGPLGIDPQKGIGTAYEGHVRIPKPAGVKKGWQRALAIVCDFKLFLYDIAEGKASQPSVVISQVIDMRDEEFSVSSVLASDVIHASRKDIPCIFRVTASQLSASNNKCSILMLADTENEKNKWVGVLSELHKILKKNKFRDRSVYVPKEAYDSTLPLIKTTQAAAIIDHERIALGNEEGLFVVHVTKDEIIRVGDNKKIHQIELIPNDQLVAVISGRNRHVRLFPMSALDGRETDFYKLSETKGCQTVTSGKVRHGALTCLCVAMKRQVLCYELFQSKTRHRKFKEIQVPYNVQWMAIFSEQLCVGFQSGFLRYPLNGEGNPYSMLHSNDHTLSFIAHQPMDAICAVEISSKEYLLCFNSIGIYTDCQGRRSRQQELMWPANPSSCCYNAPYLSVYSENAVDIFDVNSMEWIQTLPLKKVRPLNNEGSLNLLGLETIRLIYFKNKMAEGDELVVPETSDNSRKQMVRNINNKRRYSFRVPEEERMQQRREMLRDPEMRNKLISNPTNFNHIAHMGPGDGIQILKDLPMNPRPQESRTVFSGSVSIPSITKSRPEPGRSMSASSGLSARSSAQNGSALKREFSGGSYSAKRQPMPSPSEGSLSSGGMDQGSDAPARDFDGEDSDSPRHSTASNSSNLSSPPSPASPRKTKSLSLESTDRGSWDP
Chain of CDK5/p35 (Q00535 whole entry): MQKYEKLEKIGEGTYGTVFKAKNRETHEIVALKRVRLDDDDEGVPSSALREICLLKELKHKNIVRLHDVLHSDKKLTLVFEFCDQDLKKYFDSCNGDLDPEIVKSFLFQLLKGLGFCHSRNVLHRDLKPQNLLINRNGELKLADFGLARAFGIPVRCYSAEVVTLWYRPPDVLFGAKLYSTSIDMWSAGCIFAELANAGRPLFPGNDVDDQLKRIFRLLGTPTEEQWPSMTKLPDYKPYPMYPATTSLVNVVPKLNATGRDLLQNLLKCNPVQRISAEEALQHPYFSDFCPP
Chain of CDK5/p35 (Q15078 whole entry partner): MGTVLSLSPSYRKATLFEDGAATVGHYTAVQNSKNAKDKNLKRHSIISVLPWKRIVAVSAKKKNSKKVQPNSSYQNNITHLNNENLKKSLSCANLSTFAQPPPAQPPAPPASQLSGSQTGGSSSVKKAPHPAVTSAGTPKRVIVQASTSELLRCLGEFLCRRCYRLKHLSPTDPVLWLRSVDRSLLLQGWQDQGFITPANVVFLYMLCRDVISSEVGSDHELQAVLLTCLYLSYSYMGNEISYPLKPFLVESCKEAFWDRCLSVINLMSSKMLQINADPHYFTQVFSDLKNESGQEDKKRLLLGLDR
Chain of MARK1 (Q9P0L2 whole entry): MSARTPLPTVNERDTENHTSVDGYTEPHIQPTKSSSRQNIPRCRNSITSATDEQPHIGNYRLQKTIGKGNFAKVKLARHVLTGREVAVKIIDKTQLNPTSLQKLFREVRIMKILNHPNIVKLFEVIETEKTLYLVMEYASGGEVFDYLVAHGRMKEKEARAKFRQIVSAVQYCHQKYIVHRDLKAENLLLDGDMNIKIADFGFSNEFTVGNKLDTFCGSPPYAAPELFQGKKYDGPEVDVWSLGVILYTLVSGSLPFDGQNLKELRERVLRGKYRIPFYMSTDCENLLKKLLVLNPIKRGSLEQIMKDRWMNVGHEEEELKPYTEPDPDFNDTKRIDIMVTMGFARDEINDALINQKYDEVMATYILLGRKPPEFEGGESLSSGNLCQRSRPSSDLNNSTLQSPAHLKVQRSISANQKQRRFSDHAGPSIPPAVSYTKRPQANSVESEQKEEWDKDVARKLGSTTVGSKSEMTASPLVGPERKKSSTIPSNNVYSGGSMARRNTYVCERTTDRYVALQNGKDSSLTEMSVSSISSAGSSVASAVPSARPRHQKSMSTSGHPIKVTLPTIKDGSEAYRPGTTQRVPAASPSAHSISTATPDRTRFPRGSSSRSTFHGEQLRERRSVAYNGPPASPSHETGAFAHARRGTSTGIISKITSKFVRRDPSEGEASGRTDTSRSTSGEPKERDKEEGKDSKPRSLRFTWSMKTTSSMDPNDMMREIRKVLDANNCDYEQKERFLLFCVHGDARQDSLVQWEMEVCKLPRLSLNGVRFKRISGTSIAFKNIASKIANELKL

| SMILES | inhibition at 0.1 µM [1] [%] | inhibition at 1 µM [1] [%] | inhibition at 0.1 µM [2] [%] | inhibition at 1 µM [2] [%] | inhibition at 0.1 µM [3] [%] | inhibition at 1 µM [3] [%] | inhibition at 0.1 µM [4] [%] | inhibition at 1 µM [4] [%] | inhibition at 0.1 µM [5] [%] | inhibition at 1 µM [5] [%] | inhibition at 0.1 µM [6, 10] [%] | inhibition at 0.1 µM [6, 11] [%] | inhibition at 1 µM [6, 10] [%] | inhibition at 1 µM [6, 11] [%] | inhibition at 0.1 µM [7] [%] | inhibition at 1 µM [7] [%] | inhibition at 0.1 µM [8] [%] | inhibition at 1 µM [8] [%] | inhibition at 0.1 µM [9] [%] | inhibition at 1 µM [9] [%] |
| --- | --- | --- | --- | --- | --- | --- | --- | --- | --- | --- | --- | --- | --- | --- | --- | --- | --- | --- | --- | --- |
| COc1cc(-c2cc(-c3ccc(N4CCNCC4)cc3)cnc2C)cc(OC)c1OC [Compound 10, 1-(4-(6-methyl-5-(3,4,5-trimethoxyphenyl)pyridin-3-yl)phenyl)piperazine] | 2 | 2 | 7 | 9 | 2 | 2 | 6 | 6 | 0 | 2 | 34 | 34 | 92 | 92 | 4 | 5 | -1 | 2 | 5 | 5 |
| COc1cc(-c2cc(-c3ccc(N4CCNCC4)cc3)cnc2N)cc(OC)c1OC [Compound 15, 5-(4-(piperazin-1-yl)phenyl)-3-(3,4,5-trimethoxyphenyl)pyridin-2-amine] | 1 | 3 | 3 | 4 | 0 | 0 | 1 | 7 | 3 | 31 |  | 77 |  | 90 | 1 | 1 | 6 | 50 | 3 | 8 |
